In US11725011B2, “Bicyclic urea kinase inhibitors and uses thereof” (The Broad Institute, Inc., priority 2016, dated 2023):

How the values were obtained:
Assay in all cases: KINOMEscan
Format in all cases: binding
Conditions in all cases: 1 uM
RIPK5 = RIPK5 (Homo sapiens (Human), UniProt Q6XUX3)
EPHA1 = EPHA1 (Homo sapiens (Human), UniProt P21709)
GRK4 = GRK4 (Homo sapiens (Human), UniProt P32298)
PIK3CA = PIK3CA (Homo sapiens (Human), UniProt P42336)
SNARK = SNARK (Homo sapiens (Human), UniProt Q9H093)
CLK2 = CLK2 (Homo sapiens (Human), UniProt P49760)
BLK = BLK (Homo sapiens (Human), UniProt P51451)
[1] = biological target: RSK3 (Kin.Dom.1-N-terminal) (Homo sapiens (Human), UniProt Q15349)
S6K1 = S6K1 (Homo sapiens (Human), UniProt P23443)
MAPKAPK2 = MAPKAPK2 (Homo sapiens (Human), UniProt P49137)
Sequence of MAPKAPK2 (P49137 whole entry, looked up): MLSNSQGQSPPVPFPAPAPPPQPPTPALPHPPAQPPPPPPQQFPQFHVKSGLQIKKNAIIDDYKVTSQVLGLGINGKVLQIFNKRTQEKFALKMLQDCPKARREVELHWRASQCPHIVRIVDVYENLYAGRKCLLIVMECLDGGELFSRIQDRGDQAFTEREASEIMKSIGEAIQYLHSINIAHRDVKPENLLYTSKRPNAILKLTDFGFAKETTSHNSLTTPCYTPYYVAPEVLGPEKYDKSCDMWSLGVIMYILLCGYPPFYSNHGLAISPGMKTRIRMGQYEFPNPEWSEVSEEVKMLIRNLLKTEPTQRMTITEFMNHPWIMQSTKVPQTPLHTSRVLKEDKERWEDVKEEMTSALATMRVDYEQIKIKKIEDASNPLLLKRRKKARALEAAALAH

BMPR1B = BMPR1B (Homo sapiens (Human), UniProt O00238)
TRPM6 = TRPM6 (Homo sapiens (Human), UniProt Q9BX84)
Sequence of TRPM6 (Q9BX84 whole entry): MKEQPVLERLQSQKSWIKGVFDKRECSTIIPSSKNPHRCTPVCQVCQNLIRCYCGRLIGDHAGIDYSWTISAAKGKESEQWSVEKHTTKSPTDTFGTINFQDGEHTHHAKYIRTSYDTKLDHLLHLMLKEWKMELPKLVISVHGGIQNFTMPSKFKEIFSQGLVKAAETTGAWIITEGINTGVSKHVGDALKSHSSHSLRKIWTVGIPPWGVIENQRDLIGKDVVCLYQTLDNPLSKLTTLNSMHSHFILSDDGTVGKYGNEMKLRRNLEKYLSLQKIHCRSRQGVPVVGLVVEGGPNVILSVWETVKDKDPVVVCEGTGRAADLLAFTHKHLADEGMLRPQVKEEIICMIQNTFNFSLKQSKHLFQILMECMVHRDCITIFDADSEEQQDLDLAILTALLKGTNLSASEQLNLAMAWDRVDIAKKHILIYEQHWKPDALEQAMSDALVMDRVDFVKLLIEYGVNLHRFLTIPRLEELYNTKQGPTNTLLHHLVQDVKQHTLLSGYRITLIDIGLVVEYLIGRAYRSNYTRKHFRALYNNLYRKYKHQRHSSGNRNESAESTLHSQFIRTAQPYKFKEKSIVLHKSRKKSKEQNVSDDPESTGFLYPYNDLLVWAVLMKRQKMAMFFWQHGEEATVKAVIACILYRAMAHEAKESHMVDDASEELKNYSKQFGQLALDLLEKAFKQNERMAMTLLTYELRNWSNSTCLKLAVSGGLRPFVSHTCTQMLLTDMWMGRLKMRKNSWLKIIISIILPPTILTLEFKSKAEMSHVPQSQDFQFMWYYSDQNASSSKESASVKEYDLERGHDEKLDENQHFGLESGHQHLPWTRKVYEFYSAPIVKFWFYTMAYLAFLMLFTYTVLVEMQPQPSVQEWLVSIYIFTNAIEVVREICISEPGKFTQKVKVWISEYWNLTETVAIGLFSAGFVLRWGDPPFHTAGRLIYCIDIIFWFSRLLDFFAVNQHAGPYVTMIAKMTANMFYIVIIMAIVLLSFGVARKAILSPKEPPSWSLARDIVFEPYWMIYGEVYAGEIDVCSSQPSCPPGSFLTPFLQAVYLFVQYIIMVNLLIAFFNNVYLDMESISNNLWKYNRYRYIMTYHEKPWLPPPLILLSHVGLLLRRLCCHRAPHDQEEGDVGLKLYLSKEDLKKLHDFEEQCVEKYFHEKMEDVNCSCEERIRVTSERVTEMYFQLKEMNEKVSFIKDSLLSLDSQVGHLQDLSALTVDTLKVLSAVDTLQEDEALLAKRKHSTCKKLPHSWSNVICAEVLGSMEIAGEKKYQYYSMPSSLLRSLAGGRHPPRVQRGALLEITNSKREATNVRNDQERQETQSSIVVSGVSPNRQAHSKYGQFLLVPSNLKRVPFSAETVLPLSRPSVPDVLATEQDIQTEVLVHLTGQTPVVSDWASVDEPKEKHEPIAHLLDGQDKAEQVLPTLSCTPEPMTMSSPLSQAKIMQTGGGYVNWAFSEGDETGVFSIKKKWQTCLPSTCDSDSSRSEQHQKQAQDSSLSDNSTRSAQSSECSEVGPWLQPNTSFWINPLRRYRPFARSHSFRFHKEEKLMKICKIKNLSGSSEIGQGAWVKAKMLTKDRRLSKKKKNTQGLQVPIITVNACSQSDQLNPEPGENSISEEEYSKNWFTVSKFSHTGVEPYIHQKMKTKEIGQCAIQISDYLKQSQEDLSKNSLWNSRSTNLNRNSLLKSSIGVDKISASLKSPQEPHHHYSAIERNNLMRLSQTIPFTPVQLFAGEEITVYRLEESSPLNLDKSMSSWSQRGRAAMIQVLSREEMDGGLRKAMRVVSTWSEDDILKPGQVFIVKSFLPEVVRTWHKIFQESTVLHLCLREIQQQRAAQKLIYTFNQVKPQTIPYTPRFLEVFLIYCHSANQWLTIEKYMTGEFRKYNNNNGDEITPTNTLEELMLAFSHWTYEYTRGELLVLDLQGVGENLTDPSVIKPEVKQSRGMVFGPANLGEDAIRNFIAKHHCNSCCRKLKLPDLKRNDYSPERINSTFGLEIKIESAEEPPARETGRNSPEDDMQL

SIK2 = SIK2 (Homo sapiens (Human), UniProt Q9H0K1)
DAPK2 = DAPK2 (Homo sapiens (Human), UniProt Q9UIK4)
PRKCD = PRKCD (Homo sapiens (Human), UniProt Q05655)
PIK3CA (C420R) = PIK3CA (C420R) (Homo sapiens (Human), UniProt P42336, C420R)
HUNK = HUNK (Homo sapiens (Human), UniProt P57058)
MAP4K2 = MAP4K2 (Homo sapiens (Human), UniProt Q12851)
MAP3K4 = MAP3K4 (Homo sapiens (Human), UniProt Q9Y6R4)
RIOK1 = RIOK1 (Homo sapiens (Human), UniProt Q9BRS2)
YES = YES (Homo sapiens (Human), UniProt P07947)
EGFR (S752-I759del) = EGFR (S752-I759del) (Homo sapiens (Human), UniProt P00533, DEL752-759)
[2] = biological target: ABL1 (F317I)-nonphosphorylated (Homo sapiens (Human), UniProt P00519, F317I)
FES = FES (Homo sapiens (Human), UniProt P07332)
Sequence of FES (P07332 whole entry): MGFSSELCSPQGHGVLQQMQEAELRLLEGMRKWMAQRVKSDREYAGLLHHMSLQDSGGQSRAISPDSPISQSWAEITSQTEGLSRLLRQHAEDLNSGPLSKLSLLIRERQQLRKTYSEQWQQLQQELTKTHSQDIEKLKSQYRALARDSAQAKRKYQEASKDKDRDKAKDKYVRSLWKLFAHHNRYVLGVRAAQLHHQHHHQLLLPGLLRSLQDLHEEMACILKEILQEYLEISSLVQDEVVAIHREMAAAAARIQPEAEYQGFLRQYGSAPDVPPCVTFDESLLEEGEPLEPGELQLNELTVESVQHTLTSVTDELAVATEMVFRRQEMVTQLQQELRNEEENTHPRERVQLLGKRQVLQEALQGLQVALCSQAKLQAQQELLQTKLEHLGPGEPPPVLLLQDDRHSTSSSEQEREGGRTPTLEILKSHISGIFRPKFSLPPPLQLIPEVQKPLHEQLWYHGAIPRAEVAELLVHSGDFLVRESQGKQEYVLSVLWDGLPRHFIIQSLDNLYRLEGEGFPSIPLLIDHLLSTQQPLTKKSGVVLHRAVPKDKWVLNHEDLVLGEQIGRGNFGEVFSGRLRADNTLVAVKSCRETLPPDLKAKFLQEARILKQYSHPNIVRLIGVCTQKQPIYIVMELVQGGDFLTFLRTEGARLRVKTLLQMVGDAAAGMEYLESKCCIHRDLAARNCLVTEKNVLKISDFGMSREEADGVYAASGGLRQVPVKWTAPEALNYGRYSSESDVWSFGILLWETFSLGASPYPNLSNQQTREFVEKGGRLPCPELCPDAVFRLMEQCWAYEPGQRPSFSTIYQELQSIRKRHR

CDC2L1 = CDC2L1 (Homo sapiens (Human), UniProt P21127)
MKK7 = MKK7 (Homo sapiens (Human), UniProt O14733)
PAK4 = PAK4 (Homo sapiens (Human), UniProt O96013)
Sequence of PAK4 (O96013 whole entry): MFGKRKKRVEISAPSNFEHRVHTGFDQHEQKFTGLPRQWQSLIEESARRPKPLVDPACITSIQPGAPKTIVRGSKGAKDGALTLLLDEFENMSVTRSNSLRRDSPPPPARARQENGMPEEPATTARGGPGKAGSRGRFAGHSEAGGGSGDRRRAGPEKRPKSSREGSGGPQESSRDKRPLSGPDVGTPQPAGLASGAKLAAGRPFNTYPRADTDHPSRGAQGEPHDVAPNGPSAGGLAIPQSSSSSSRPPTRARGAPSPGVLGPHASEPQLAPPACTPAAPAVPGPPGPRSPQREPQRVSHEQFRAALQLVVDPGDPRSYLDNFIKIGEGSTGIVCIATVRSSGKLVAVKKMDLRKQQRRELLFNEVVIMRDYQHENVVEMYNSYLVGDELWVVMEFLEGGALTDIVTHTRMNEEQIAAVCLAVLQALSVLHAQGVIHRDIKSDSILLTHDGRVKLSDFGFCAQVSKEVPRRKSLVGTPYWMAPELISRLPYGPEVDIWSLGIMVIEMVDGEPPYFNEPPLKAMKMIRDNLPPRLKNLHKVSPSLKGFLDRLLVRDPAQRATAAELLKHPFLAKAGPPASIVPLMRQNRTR

TNK1 = TNK1 (Homo sapiens (Human), UniProt Q13470)
MET = MET (Homo sapiens (Human), UniProt P08581)
MARK3 = MARK3 (Homo sapiens (Human), UniProt P27448)
MKNK1 = MKNK1 (Homo sapiens (Human), UniProt Q9BUB5)
YANK2 = YANK2 (Homo sapiens (Human), UniProt Q9NY57)
FGFR2 = FGFR2 (Homo sapiens (Human), UniProt P21802)
SLK = SLK (Homo sapiens (Human), UniProt Q9H2G2)
EGFR (L858R, T790M) = EGFR (L858R, T790M) (Homo sapiens (Human), UniProt P00533, L858R/T790M)
LIMK1 = LIMK1 (Homo sapiens (Human), UniProt P53667)
Sequence of LIMK1 (P53667 whole entry): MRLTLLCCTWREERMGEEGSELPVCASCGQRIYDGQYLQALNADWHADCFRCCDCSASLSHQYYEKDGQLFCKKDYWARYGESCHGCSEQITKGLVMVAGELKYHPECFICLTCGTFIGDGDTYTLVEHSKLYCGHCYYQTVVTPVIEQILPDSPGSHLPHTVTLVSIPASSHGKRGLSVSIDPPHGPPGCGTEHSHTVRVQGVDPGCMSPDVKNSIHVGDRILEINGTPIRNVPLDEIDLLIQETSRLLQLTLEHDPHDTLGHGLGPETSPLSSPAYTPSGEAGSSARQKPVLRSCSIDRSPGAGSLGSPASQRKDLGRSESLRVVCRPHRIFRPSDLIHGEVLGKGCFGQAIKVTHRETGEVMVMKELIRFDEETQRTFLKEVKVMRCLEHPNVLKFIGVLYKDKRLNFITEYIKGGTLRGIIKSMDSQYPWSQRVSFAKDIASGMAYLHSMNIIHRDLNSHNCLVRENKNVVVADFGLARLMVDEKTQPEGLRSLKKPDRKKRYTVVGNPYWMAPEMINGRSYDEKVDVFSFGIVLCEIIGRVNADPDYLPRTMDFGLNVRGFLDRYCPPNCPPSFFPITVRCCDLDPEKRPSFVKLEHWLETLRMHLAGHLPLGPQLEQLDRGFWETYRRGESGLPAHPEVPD

PRKD2 = PRKD2 (Homo sapiens (Human), UniProt Q9BZL6)
p38-gamma = p38-gamma (Homo sapiens (Human), UniProt P53778)
PIK3CA (H1047Y) = PIK3CA (H1047Y) (Homo sapiens (Human), UniProt P42336, H1047Y)
EPHB3 = EPHB3 (Homo sapiens (Human), UniProt P54753)

Sequence of GRK4 (P32298 whole entry): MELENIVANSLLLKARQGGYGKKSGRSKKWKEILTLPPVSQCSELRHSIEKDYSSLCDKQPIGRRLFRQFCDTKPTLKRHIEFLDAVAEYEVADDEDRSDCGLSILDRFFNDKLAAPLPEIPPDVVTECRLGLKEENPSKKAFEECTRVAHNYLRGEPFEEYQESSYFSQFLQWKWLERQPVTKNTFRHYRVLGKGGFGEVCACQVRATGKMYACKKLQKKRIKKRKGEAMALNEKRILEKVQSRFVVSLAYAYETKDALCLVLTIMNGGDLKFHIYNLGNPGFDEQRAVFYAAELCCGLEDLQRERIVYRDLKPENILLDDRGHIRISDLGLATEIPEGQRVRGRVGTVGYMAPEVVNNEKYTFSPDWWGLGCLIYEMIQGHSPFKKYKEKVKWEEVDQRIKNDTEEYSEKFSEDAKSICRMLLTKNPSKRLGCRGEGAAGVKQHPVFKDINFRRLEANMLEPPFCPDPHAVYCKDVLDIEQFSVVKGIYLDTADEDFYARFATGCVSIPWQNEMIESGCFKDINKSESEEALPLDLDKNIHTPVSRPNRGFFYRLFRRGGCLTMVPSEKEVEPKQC

COc1ccc(N2C(=O)N(c3c(C)cccc3C)Cc3cnc(Nc4ccc(N5CCN(C)CC5)cc4)nc32)c(OC)c1 [HG-11-136-01]
KINOMEscan RIPK5 (RIPK5): 2.8 | KINOMEscan EPHA1 (EPHA1): 0 | KINOMEscan GRK4 (GRK4): 26 | KINOMEscan PIK3CA (PIK3CA): 100 | KINOMEscan SNARK (SNARK): 0.4 | KINOMEscan CLK2 (CLK2): 35 | KINOMEscan BLK (BLK): 0.1 | KINOMEscan RSK3 (Kin.Dom.1-N-terminal) [1]: 40 | KINOMEscan S6K1 (S6K1): 72 | KINOMEscan MAPKAPK2 (MAPKAPK2): 100 | KINOMEscan BMPR1B (BMPR1B): 0 | KINOMEscan TRPM6 (TRPM6): 69 | KINOMEscan SIK2 (SIK2): 6.1 | KINOMEscan DAPK2 (DAPK2): 88 | KINOMEscan PRKCD (PRKCD): 94 | KINOMEscan PIK3CA (C420R) (PIK3CA (C420R)): 69 | KINOMEscan HUNK (HUNK): 28 | KINOMEscan MAP4K2 (MAP4K2): 0.3 | KINOMEscan MAP3K4 (MAP3K4): 16 | KINOMEscan RIOK1 (RIOK1): 9.2 | KINOMEscan YES (YES): 0.05 | KINOMEscan EGFR (S752-I759del) (EGFR (S752-I759del)): 4.2 | KINOMEscan ABL1 (F317I)-nonphosphorylated [2]: 0 | KINOMEscan FES (FES): 0 | KINOMEscan CDC2L1 (CDC2L1): 79 | KINOMEscan MKK7 (MKK7): 80 | KINOMEscan PAK4 (PAK4): 34 | KINOMEscan TNK1 (TNK1): 0.9 | KINOMEscan MET (MET): 66 | KINOMEscan MARK3 (MARK3): 1.6 | KINOMEscan MKNK1 (MKNK1): 85 | KINOMEscan YANK2 (YANK2): 1.8 | KINOMEscan FGFR2 (FGFR2): 0.8 | KINOMEscan SLK (SLK): 0.1 | KINOMEscan EGFR (L858R, T790M) (EGFR (L858R, T790M)): 1.7 | KINOMEscan LIMK1 (LIMK1): 0.05 | KINOMEscan PRKD2 (PRKD2): 3.6 | KINOMEscan p38-gamma (p38-gamma): 91 | KINOMEscan PIK3CA (H1047Y) (PIK3CA (H1047Y)): 63 | KINOMEscan EPHB3 (EPHB3): 0
